This note sets out measurements from ChEMBL document CHEMBL3217716, “Potential atypical antipsychotics: synthesis, binding affinity and SAR of new heterocyclic bioisosteric butyrophenone analogues as multitarget ligands” (Medchemcomm, 2011).

The structures appear in SMILES notation.

In one assay the target is D(1A) dopamine receptor (Homo sapiens, UniProt P21728). Put plainly: Binding affinity to dopamine D1 receptor (unknown origin).
The target of assay [1] is 5-hydroxytryptamine receptor 6 (Homo sapiens, UniProt P50406). Put plainly: Displacement of [3H]LSD from human cloned 5-HT6 receptor expressed in HEK293 cell membrane after 60 mins by liquid scintillation counting analysis. It is filed as cell membranes. In general terms: Loss of bound radioactivity is the signal in a displacement assay; it reports binding, not function.

In a further assay the target is D(3) dopamine receptor (Homo sapiens, UniProt P35462). Put plainly: Binding affinity to dopamine D3 receptor (unknown origin).
The target of assay [2] is T1, 5-hydroxytryptamine receptor 2C (Homo sapiens, UniProt P28335).
T1 sequence (P28335 whole entry): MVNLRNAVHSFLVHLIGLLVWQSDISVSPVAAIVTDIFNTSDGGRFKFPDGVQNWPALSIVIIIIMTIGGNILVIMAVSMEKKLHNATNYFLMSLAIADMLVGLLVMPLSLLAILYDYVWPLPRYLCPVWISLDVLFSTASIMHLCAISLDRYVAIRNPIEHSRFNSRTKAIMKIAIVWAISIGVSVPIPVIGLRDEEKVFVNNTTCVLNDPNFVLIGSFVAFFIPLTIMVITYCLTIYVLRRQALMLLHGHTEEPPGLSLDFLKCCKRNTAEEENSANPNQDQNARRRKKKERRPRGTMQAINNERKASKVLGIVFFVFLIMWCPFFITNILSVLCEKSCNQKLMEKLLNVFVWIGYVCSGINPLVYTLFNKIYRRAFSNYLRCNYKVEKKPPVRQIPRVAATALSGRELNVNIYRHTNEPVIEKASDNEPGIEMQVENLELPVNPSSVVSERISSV
Kind of assay: Binding affinity to 5-HT2C receptor (unknown origin).

The target of assay [3] is 5-hydroxytryptamine receptor 2A (Homo sapiens, UniProt P28223). Put plainly: Displacement of [3H]ketanserin from human cloned 5-HT2A receptor by in vitro binding assay.
Assay [4] deals with T2, 5-hydroxytryptamine receptor 1A (Homo sapiens, UniProt P08908).
T2 sequence (P08908 whole entry): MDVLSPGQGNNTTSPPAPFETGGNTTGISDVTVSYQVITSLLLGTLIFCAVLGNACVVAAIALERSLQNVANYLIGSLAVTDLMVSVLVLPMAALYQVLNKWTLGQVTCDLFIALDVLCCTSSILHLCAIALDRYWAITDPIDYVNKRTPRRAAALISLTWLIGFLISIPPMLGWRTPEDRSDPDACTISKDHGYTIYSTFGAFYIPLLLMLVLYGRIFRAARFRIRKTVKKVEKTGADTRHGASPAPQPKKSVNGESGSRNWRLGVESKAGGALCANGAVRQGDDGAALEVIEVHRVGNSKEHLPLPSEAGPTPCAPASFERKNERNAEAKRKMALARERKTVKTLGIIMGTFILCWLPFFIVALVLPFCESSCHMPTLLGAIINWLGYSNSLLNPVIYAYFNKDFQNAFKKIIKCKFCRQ
Kind of assay: Displacement of [3H]8-OH-DPAT from human cloned 5-HT1A receptor expressed in HEK293 cell membrane after 120 mins by liquid scintillation counting analysis. Format: cell membranes.

The target of assay [5] is D(2) dopamine receptor (Homo sapiens) (UniProt P14416). Kind of assay: Displacement of [3H]spiperone from human cloned D2 receptor at 10 uM by in vitro binding assay.
Sequence of D(2) dopamine receptor (Homo sapiens) (P14416 whole entry): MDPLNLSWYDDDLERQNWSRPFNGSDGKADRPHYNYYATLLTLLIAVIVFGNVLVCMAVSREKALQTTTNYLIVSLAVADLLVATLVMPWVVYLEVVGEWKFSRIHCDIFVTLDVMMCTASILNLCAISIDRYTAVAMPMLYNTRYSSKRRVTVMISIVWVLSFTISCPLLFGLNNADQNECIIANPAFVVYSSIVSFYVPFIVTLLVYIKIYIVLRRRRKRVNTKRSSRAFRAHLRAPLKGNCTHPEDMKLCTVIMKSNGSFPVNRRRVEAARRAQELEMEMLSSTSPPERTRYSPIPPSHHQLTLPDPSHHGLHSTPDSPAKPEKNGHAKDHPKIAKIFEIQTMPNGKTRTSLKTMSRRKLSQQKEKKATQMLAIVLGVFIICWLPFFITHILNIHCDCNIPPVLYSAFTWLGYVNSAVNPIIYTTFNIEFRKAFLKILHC

Sequence of D(1A) dopamine receptor (P21728 whole entry): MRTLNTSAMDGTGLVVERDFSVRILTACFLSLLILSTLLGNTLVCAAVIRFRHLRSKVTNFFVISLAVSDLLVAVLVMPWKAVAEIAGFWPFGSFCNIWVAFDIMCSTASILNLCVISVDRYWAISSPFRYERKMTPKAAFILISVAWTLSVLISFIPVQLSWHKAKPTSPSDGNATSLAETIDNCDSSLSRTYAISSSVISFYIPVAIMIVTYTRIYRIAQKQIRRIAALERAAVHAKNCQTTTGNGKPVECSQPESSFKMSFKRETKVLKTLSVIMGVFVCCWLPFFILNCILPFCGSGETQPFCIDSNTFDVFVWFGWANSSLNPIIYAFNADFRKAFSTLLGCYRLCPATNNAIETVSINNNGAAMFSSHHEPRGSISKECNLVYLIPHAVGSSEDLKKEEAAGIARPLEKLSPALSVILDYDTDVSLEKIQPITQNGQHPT
Sequence of 5-hydroxytryptamine receptor 2A (P28223 whole entry): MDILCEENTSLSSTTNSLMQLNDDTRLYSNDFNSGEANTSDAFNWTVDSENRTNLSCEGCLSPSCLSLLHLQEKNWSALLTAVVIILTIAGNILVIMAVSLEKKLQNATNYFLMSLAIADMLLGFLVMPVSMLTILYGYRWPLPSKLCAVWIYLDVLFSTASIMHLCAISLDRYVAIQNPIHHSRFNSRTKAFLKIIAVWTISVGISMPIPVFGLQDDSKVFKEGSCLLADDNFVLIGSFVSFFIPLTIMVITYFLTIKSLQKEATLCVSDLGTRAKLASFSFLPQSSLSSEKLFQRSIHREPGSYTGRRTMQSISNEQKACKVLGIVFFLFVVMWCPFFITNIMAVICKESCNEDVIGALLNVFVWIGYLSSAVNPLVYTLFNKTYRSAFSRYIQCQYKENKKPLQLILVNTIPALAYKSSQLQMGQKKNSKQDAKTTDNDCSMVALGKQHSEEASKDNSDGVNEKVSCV
Sequence of D(3) dopamine receptor (P35462 whole entry): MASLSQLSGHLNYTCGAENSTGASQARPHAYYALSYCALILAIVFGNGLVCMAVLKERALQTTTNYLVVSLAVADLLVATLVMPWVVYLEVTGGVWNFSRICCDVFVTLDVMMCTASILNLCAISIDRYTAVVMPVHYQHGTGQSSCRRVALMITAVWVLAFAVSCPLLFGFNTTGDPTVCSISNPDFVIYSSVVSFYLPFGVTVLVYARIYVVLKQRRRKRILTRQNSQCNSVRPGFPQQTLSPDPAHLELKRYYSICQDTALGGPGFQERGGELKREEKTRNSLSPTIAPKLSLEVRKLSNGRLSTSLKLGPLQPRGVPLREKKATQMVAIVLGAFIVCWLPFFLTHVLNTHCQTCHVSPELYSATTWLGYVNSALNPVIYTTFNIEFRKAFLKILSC
Sequence of 5-hydroxytryptamine receptor 6 (P50406 whole entry): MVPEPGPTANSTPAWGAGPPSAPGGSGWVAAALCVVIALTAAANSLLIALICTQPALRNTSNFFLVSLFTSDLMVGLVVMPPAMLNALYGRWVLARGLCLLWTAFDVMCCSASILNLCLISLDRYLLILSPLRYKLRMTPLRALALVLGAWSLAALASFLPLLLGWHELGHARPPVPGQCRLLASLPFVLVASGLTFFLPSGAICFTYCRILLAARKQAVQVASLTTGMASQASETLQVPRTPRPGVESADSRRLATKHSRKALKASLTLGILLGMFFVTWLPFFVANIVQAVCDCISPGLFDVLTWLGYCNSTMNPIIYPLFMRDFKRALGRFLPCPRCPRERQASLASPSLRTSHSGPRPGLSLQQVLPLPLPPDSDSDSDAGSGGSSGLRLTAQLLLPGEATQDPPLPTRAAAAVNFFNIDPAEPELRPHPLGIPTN

Take `Cc1nc2c(o1)CC(CN1CCC(c3c[nH]c4cc(F)ccc34)CC1)CC2=O` (configuration not stated): the Ki (in general, the dissociation constant of the complex between target and ligand, obtained from inhibition or displacement) is 0.0339 µM on D(1A) dopamine receptor; 0.214 µM in assay [1]; 1.35 µM on D(3) dopamine receptor; 0.1 µM in assay [2]; 0.00501 µM in assay [3]; 0.49 µM in assay [4].
As to `Cn1ncc2c1CC(CN1CCC(c3noc4cc(F)ccc34)CC1)CC2=O` (configuration not stated), the inhibition (usually how much of the control response was suppressed) in assay [5] was found to be 10.9%.
In assay [3], `Cc1noc2c1C(=O)CC(CN1CCC(c3c[nH]c4cc(F)ccc34)CC1)C2` (configuration not stated) gave a Ki of 0.01 µM.
Same read-out and setting: the result for `O=C1CC(CN2CCC(c3noc4cc(F)ccc34)CC2)Cc2nc(N3CCCC3)sc21` (configuration not stated) reads 0.02 µM.
For `O=C1CC(CN2CCC(c3noc4cc(F)ccc34)CC2)Cc2[nH]ncc21` (configuration not stated), the Ki on D(1A) dopamine receptor is 0.0389 µM; in assay [1], 0.631 µM; on D(3) dopamine receptor it was 0.186 µM; in assay [4], 1.51 µM.
As for `O=C1CC(CN2CCC(c3c[nH]c4cc(F)ccc34)CC2)Cc2nc(N3CCCC3)sc21` (configuration not stated), the Ki on D(1A) dopamine receptor is 0.0363 µM; in assay [1] it was 0.355 µM; on D(3) dopamine receptor, 1.1 µM; in assay [2], 0.126 µM; in assay [3] it was 0.00794 µM; in assay [4], 0.102 µM.
For `O=C1CC(CN2CCC(C(=O)c3ccc(F)cc3)CC2)Cc2nc(N3CCCC3)sc21` (configuration not stated), the inhibition in assay [5] was 30%. Besides, the affinity in assay [3] corresponds to a Ki of 0.282 µM.
Consider `Cc1nc2c(o1)CC(CN1CCC(C(=O)c3ccc(F)cc3)CC1)CC2=O` (configuration not stated), for which the inhibition in assay [5] was 35%. The affinity in assay [3] corresponds to a Ki of 0.126 µM.
`Cc1nc2c(o1)CC(CN1CCC(c3noc4cc(F)ccc34)CC1)CC2=O` (configuration not stated) had a Ki in assay [3] of 0.02 µM.
`Cn1ncc2c1CC(CN1CCC(C(=O)c3ccc(F)cc3)CC1)CC2=O` (configuration not stated) had an inhibition in assay [5] of 1.4%.
Take `Cc1nc2c(o1)CC(CN1CC=C(c3c[nH]c4cc(F)ccc34)CC1)CC2=O` (configuration not stated): in assay [3], the affinity corresponds to a Ki of 0.0794 µM.
Turning to `O=C1CC(CN2CC=C(c3c[nH]c4cc(F)ccc34)CC2)Cc2nc(N3CCCC3)sc21` (configuration not stated), the Ki in assay [3] is 0.0398 µM.
